Results reported in patent publication US20080009418A1, “Selective Inhibitors” (Alchemia LTD., priority 2004, published 2008).

Assays:
Human neurokinin (NK1) = biological target: T1, Human neurokinin (NK1) (Homo sapiens, UniProt P25103); assay: Radioligand binding, human neurokinin NK1 membranes, filtration, [125I]-Substance P; settings: compound at 10 μM, [125I]-Substance P
T1 construct: purchased Perkin Elmer Biosignal
Procedure, shortened: (§1)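 Percent inhibition of radioligand binding measured on recombinant human membranes: NK1 with [125I]-Substance P, KOP with [3H]-Diprenorphine. Incubation 1 h at room temperature, then harvest onto 0.3% PEI-soaked filters, cold Tris-HCl pH 7.4 washes and scintillation counting; non-specific binding from reference ligand wells.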

Human δ-opioid (DOP) = biological target: T2, Human δ-opioid (DOP) (Homo sapiens, UniProt P41143); assay: Radioligand binding, human δ-opioid (DOP) membranes, FlashPlate, [3H]-Bremazocine; settings: compound at 10 μM, [3H]-Bremazocine
T2 construct: purchased Perkin Elmer Biosignal
Procedure, shortened: (§2)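 Cloned human receptor membranes were coated onto FlashPlate wells and incubated with radioligand and compound (added from a 0.5 mM DMSO daughter plate) for 1 hour at room temperature in the dark. Scintillation counting gave percent inhibition, with DMSO defining total and reference ligand defining non-specific binding.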

Human Melanocortin (MC4) = biological target: T3, Human Melanocortin (MC4) (Homo sapiens, UniProt P32245); assay: Radioligand binding, human melanocortin MC4 membranes, FlashPlate, [125I]-NDP-αMSH; settings: compound at 10 μM, [125I]-NDP-αMSH
T3 construct: purchased Perkin Elmer Biosignal
Procedure, shortened: as §2

Human melanocortin (MC5) = biological target: T4, Human melanocortin (MC5) (Homo sapiens, UniProt P33032); assay: Radioligand binding, human melanocortin MC5 membranes, FlashPlate, [125I]-NDP-αMSH; settings: compound at 10 μM, [125I]-NDP-αMSH
T4 construct: purchased Perkin Elmer Biosignal
Procedure, shortened: as §2

[1] = biological target: T5, Human neuropeptide Y (NPY-Y1) (Homo sapiens, UniProt P25929); assay: Radioligand binding, human neuropeptide Y NPY-Y1 membranes, FlashPlate, [125I]-PYY; settings: compound at 10 μM, [125I]-PYY
T5 construct: purchased Perkin Elmer Biosignal
T5 sequence (P25929 1-384): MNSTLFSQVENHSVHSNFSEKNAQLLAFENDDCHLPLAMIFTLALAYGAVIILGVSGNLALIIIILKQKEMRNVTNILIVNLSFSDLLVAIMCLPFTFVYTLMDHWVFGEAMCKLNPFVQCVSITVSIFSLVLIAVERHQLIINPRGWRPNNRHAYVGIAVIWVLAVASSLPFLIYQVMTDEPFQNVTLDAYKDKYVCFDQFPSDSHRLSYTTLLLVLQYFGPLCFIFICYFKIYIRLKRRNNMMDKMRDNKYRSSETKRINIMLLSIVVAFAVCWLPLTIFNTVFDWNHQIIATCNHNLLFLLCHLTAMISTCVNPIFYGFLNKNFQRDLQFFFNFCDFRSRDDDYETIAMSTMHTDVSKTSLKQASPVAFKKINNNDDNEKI
Procedure, shortened: as §2

Human μ-opioid (MOP) = biological target: T6, Human μ-opioid (MOP) (Homo sapiens, UniProt P35372); assay: Radioligand binding, human μ-opioid (MOP) membranes, FlashPlate, [3H]-Naloxone; settings: compound at 10 μM, [3H]-Naloxone
T6 construct: purchased Perkin Elmer Biosignal
Procedure, shortened: as §2

Human κ-Opioid (KOP) = biological target: T7, Human κ-Opioid (KOP) (Homo sapiens, UniProt P41145); assay: Radioligand binding, human κ-opioid (KOP) membranes, filtration, [3H]-Diprenorphine; settings: compound at 10 μM, [3H]-Diprenorphine
T7 construct: purchased Perkin Elmer Biosignal
Procedure, shortened: as §1

Human Melanocortin (MC3) = biological target: T8, Human Melanocortin (MC3) (Homo sapiens, UniProt P41968); assay: Radioligand binding, human melanocortin MC3 membranes, FlashPlate, [125I]-NDP-αMSH; settings: compound at 10 μM, [125I]-NDP-αMSH
T8 construct: purchased Perkin Elmer Biosignal
Procedure, shortened: as §2

Human opioid (ORL1) = biological target: T9, Human opioid (ORL1) (Homo sapiens, UniProt P41146); assay: Radioligand binding, human opioid ORL1 membranes, FlashPlate, [125I]-Nociceptin; settings: compound at 10 μM, [125I]-Nociceptin
T9 construct: purchased Perkin Elmer Biosignal
Procedure, shortened: as §2

Mouse urotensin (mUR2) = biological target: T10, Mouse urotensin (mUR2) (Mus musculus, UniProt Q8VIH9); assay: Radioligand binding, mouse urotensin mUR2 membranes, FlashPlate, [125I]-Urotensin II; settings: compound at 10 μM, [125I]-Urotensin II
T10 construct: purchased Perkin Elmer Biosignal
T10 sequence (Q8VIH9 1-385): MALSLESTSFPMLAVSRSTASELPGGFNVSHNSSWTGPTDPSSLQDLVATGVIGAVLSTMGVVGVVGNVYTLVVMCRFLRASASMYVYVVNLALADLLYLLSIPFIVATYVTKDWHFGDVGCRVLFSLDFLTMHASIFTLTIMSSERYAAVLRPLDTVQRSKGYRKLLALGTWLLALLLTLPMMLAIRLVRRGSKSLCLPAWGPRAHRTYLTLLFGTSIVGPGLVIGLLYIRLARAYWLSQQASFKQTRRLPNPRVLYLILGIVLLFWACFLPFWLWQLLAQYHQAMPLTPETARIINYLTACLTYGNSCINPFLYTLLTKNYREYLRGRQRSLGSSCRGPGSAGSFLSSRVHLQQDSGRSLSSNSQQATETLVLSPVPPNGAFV
Procedure, shortened: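 Cloned mouse urotensin (mUR2) receptor membranes from Perkin Elmer Biosignal were immobilized in FlashPlate microplates using a proprietary coating. Each well got 19.5 μl buffer, then 0.5 μl of DMSO, reference ligand, or compound. Adding 5 μl of [125I]-Urotensin II, diluted to 5× final concentration in binding buffer, started binding. Plates were sealed with TopSeal-A and incubated 1 hour at room temperature in the dark. Wells were counted for 30 seconds each on a TopCount after a 60-second delay, and percentage inhibition was calculated.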

[2] = biological target: T11, Human melanin-concentrating hormone (MCH1) (Homo sapiens, UniProt Q99705); assay: Radioligand binding, human melanin-concentrating hormone MCH1 membranes, FlashPlate, [125I]-S36057; settings: compound at 10 μM
T11 construct: purchased Perkin Elmer Biosignal
Procedure, shortened: as §2

[3] = [125I]-S36057, human MCH1 membranes

T9 sequence (P41146 whole entry): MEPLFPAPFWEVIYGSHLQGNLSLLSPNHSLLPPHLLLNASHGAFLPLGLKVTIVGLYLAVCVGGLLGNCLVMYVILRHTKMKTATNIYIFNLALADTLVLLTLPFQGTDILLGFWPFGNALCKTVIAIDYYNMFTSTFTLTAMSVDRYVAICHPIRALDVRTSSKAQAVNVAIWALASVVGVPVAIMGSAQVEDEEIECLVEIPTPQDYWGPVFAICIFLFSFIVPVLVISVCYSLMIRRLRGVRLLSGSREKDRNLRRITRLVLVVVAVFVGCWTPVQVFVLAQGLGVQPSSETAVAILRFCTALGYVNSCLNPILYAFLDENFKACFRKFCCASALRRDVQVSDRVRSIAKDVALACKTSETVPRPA
T4 sequence (P33032 whole entry): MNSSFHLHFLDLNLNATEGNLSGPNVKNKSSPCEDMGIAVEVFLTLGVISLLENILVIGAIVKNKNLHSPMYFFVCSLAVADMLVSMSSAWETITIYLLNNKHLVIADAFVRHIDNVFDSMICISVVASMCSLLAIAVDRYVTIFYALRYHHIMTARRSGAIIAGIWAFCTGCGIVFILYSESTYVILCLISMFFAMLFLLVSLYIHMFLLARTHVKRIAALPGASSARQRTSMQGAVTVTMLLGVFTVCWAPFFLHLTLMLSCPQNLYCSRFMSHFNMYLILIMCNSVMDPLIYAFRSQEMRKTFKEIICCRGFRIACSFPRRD
T3 sequence (P32245 whole entry): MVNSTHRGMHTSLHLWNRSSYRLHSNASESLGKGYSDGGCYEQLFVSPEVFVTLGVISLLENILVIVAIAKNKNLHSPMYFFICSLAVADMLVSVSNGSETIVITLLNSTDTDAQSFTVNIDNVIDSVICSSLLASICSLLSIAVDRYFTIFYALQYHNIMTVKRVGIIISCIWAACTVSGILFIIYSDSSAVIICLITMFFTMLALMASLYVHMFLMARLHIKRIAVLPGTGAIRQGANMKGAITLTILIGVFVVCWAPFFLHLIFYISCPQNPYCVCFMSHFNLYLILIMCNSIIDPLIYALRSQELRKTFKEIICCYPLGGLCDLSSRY
T6 sequence (P35372 whole entry): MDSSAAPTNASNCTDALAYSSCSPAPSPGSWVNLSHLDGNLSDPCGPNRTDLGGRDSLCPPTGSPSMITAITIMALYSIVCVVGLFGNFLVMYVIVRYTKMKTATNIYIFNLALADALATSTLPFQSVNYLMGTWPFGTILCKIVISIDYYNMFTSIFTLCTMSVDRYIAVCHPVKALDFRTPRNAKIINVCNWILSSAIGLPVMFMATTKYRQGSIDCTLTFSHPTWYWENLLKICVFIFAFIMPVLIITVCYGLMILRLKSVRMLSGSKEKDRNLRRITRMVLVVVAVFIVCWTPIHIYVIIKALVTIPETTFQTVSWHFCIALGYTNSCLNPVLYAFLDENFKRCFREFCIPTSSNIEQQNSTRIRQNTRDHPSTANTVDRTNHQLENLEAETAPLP
T1 sequence (P25103 whole entry): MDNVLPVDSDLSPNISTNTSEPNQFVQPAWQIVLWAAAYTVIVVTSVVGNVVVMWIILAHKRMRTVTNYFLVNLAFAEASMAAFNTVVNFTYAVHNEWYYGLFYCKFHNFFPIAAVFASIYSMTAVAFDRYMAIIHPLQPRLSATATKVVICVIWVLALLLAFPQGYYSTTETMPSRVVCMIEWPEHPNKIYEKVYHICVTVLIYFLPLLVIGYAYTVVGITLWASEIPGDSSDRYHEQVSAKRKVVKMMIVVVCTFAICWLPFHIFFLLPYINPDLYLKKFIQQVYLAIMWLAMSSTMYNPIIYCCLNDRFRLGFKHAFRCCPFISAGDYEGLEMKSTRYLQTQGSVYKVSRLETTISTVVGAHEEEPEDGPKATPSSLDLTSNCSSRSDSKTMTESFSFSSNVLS
T8 sequence (P41968 whole entry): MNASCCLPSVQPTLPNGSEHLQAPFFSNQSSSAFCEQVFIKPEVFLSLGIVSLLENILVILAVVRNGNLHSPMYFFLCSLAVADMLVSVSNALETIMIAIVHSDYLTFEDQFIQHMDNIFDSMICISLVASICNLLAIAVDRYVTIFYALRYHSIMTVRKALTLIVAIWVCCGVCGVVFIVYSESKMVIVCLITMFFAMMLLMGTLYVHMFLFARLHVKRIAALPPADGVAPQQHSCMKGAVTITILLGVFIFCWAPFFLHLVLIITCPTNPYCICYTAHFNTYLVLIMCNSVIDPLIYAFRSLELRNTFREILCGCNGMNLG
T11 sequence (Q99705 whole entry): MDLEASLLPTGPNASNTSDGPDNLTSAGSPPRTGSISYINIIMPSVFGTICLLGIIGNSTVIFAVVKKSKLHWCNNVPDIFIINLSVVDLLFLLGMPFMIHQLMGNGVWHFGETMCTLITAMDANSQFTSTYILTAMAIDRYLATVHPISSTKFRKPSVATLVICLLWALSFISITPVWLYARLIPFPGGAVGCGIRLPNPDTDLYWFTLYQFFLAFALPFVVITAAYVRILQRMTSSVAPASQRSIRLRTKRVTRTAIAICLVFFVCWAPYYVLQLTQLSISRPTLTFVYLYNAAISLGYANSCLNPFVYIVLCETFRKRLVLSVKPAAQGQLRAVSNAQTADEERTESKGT
T7 sequence (P41145 whole entry): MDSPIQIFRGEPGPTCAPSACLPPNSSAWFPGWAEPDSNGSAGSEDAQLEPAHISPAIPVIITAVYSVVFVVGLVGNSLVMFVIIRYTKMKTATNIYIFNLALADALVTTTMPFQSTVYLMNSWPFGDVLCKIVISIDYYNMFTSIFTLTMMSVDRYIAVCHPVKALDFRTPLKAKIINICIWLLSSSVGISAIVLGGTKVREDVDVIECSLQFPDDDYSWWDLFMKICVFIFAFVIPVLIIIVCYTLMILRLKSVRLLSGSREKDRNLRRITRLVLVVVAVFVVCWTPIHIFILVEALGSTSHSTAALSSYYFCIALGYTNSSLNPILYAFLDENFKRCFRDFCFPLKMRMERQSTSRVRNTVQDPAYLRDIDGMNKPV
T2 sequence (P41143 whole entry): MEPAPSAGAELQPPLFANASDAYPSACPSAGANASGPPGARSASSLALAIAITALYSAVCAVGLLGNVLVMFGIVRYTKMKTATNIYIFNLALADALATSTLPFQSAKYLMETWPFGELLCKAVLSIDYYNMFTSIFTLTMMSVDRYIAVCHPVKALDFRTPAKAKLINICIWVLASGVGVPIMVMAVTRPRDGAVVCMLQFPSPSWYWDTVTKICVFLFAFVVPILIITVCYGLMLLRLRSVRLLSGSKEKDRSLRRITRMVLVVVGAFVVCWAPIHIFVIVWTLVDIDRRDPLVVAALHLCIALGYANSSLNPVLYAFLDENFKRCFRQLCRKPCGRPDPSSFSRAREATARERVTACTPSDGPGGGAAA

SMILES	A8: inhibition of radioligand binding (Human neurokinin (NK1); human NK1 membranes)	A1: inhibition of radioligand binding (Human δ-opioid (DOP); human DOP membranes)	A4: inhibition of radioligand binding (Human Melanocortin (MC4); human MC4 membranes)	A5: inhibition of radioligand binding (Human melanocortin (MC5); human MC5 membranes)	A9: inhibition of radioligand binding ([1]; human NPY-Y1 membranes)	A7: inhibition of radioligand binding (Human μ-opioid (MOP); human MOP membranes)	A2: inhibition of radioligand binding (Human κ-Opioid (KOP); human KOP membranes)	A3: inhibition of radioligand binding (Human Melanocortin (MC3); human MC3 membranes)	A10: inhibition of radioligand binding (Human opioid (ORL1); human ORL1 membranes)	A11: inhibition of radioligand binding (Mouse urotensin (mUR2); mouse mUR2 membranes)	A6: inhibition of radioligand binding [2, 3]	other results
N=C(N)NCC(=O)NC1C(OCc2ccc(-c3ccccc3)cc2)OC(COCc2ccc3ccccc3c2)C(O)C1OCc1ccc(Cl)cc1 (stereo not shown) [compound 399]	+ (“+” indicates greater than 50% inhibition at 10 μM)	− (“−” indicates less than 50% inhibition at 10 μM)	+ (“+” indicates greater than 50% inhibition at 10 μM)	+ (“+” indicates greater than 50% inhibition at 10 μM)	− (“−” indicates less than 50% inhibition at 10 μM)	− (“−” indicates less than 50% inhibition at 10 μM)	− (“−” indicates less than 50% inhibition at 10 μM)	+ (“+” indicates greater than 50% inhibition at 10 μM)	− (“−” indicates less than 50% inhibition at 10 μM)	− (“−” indicates less than 50% inhibition at 10 μM)	− (“−” indicates less than 50% inhibition at 10 μM)	
NCCC(=O)NC1C(OCc2ccc(Cl)cc2)OC(COCc2ccc3ccccc3c2)C(O)C1OCc1ccc(Cl)cc1 (single isomer, unassigned) [compound 471]	+ (“+” indicates greater than 50% inhibition at 10 μM)	− (“−” indicates less than 50% inhibition at 10 μM)		+ (“+” indicates greater than 50% inhibition at 10 μM)	− (“−” indicates less than 50% inhibition at 10 μM)	− (“−” indicates less than 50% inhibition at 10 μM)	− (“−” indicates less than 50% inhibition at 10 μM)	+ (“+” indicates greater than 50% inhibition at 10 μM)	− (“−” indicates less than 50% inhibition at 10 μM)	− (“−” indicates less than 50% inhibition at 10 μM)		A4: inhibition of radioligand binding (Human Melanocortin (MC4); human MC4 membranes, 10 µM): − (“−” indicates less than 50% inhibition at 10 μM); A6: inhibition of radioligand binding ([2]; [125I]-S36057, human MCH1 membranes, 10 µM): − (“−” indicates less than 50% inhibition at 10 μM)
NCCC(=O)NC1C(OCc2ccccc2)OC(COCc2ccc(Cl)cc2)C(O)C1OCc1ccccc1 (stereo not shown) [compound 371]												A8: inhibition of radioligand binding, human neurokinin (NK1) (Human neurokinin (NK1)): + (“+” indicates greater than 50% inhibition at 10 μM); A1: inhibition of radioligand binding, human δ-opioid (DOP) (Human δ-opioid (DOP)): − (“−” indicates less than 50% inhibition at 10 μM); A4: inhibition of radioligand binding, human melanocortin (MC4) (Human Melanocortin (MC4)): − (“−” indicates less than 50% inhibition at 10 μM); A5: inhibition of radioligand binding, human melanocortin (MC5) (Human melanocortin (MC5)): − (“−” indicates less than 50% inhibition at 10 μM); A9: inhibition of radioligand binding, human neuropeptide Y (NPY-Y1) [1]: − (“−” indicates less than 50% inhibition at 10 μM); A7: inhibition of radioligand binding, human μ-opioid (MOP) (Human μ-opioid (MOP)): − (“−” indicates less than 50% inhibition at 10 μM); A2: inhibition of radioligand binding, human κ-opioid (KOP) (Human κ-Opioid (KOP)): − (“−” indicates less than 50% inhibition at 10 μM); A3: inhibition of radioligand binding, human melanocortin (MC3) (Human Melanocortin (MC3)): − (“−” indicates less than 50% inhibition at 10 μM); A10: inhibition of radioligand binding, human opioid (ORL1) (Human opioid (ORL1)): − (“−” indicates less than 50% inhibition at 10 μM); A11: inhibition of radioligand binding, mouse urotensin (mUR2) (Mouse urotensin (mUR2)): − (“−” indicates less than 50% inhibition at 10 μM); A6: inhibition of radioligand binding, human melanin-concentrating hormone (MCH1) ([2]; [125I]-S36057): − (“−” indicates less than 50% inhibition at 10 μM)
NCCC(=O)NC1C(OCc2ccc3ccccc3c2)OC(COCc2ccc3ccccc3c2)C(O)C1OCc1ccccc1 (stereo not shown) [compound 387]	+ (“+” indicates greater than 50% inhibition at 10 μM)	− (“−” indicates less than 50% inhibition at 10 μM)	+ (“+” indicates greater than 50% inhibition at 10 μM)	+ (“+” indicates greater than 50% inhibition at 10 μM)	− (“−” indicates less than 50% inhibition at 10 μM)	− (“−” indicates less than 50% inhibition at 10 μM)	− (“−” indicates less than 50% inhibition at 10 μM)	+ (“+” indicates greater than 50% inhibition at 10 μM)	− (“−” indicates less than 50% inhibition at 10 μM)	− (“−” indicates less than 50% inhibition at 10 μM)	− (“−” indicates less than 50% inhibition at 10 μM)	
COCC1OC(OCc2ccc(Cl)cc2)C(NC(=O)CCN)C(OCc2ccccc2)C1O (stereo not shown) [compound 195]												A8: inhibition of radioligand binding (Human neurokinin (NK1); filtration): + (“+” indicates greater than 50% inhibition at 10 μM); A1: inhibition of radioligand binding (Human δ-opioid (DOP); FlashPlate): − (“−” indicates less than 50% inhibition at 10 μM); A4: inhibition of radioligand binding (Human Melanocortin (MC4); FlashPlate): − (“−” indicates less than 50% inhibition at 10 μM); A5: inhibition of radioligand binding (Human melanocortin (MC5); FlashPlate): − (“−” indicates less than 50% inhibition at 10 μM); A9: inhibition of radioligand binding ([1]; FlashPlate): − (“−” indicates less than 50% inhibition at 10 μM); A7: inhibition of radioligand binding (Human μ-opioid (MOP); FlashPlate): − (“−” indicates less than 50% inhibition at 10 μM); A2: inhibition of radioligand binding (Human κ-Opioid (KOP); filtration): − (“−” indicates less than 50% inhibition at 10 μM); A3: inhibition of radioligand binding (Human Melanocortin (MC3); FlashPlate): − (“−” indicates less than 50% inhibition at 10 μM); A10: inhibition of radioligand binding (Human opioid (ORL1); FlashPlate): − (“−” indicates less than 50% inhibition at 10 μM); A11: inhibition of radioligand binding (Mouse urotensin (mUR2); FlashPlate): − (“−” indicates less than 50% inhibition at 10 μM); A6: inhibition of radioligand binding ([2]; [125I]-S36057, FlashPlate): − (“−” indicates less than 50% inhibition at 10 μM)
